This note sets out measurements from patent US20120101100A1 (priority 2008, published 2012).

As usually defined, the inhibition is the change of the read-out against control, counted positive when it falls.

Each structure is given as a SMILES string. Where a name gives a salt, the structure may show the parent alone.

S. aureus GyrB ATPase, sequence (P0A0K8 whole entry): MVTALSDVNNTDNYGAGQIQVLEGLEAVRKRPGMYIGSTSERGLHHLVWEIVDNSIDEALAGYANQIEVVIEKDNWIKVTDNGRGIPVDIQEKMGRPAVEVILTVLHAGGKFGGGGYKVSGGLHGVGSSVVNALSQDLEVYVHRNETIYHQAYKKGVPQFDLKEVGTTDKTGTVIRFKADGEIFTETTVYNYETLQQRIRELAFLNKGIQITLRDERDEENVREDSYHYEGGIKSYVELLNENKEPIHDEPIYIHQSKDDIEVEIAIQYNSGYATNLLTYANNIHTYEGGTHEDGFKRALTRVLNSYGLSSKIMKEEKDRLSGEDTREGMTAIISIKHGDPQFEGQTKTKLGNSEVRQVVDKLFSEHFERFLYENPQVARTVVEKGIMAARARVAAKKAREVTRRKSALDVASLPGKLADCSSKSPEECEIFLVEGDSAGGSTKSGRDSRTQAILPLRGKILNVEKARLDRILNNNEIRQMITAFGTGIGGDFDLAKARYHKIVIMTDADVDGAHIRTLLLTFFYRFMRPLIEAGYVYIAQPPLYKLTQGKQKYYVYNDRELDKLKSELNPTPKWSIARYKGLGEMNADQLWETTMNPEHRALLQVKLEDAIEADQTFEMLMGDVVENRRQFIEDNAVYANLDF
S. aureus GyrB ATPase, sequence (P0AES4 whole entry, further chain): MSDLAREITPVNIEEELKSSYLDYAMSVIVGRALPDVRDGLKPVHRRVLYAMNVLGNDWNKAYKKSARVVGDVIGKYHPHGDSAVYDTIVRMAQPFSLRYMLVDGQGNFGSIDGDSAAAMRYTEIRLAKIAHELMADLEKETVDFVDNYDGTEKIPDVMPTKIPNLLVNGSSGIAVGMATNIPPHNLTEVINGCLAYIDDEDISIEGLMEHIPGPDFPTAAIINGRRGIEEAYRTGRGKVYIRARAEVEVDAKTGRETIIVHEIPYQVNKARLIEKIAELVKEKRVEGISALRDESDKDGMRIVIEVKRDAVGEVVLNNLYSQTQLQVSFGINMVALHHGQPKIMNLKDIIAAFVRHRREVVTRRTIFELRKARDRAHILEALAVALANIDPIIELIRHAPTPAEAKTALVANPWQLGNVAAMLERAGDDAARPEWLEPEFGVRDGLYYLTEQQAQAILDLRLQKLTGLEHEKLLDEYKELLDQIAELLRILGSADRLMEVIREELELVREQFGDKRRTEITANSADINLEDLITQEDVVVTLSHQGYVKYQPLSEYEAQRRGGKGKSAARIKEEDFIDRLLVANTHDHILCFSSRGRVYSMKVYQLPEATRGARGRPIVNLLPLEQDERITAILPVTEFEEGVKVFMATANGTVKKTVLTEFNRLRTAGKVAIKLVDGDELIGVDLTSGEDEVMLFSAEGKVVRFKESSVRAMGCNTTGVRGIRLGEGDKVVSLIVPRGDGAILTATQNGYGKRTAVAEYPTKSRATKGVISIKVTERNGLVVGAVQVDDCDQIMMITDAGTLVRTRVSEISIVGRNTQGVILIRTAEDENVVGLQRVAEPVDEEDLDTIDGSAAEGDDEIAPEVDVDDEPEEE

One test deals with S. aureus GyrB ATPase (Staphylococcus aureus, UniProt P0A0K8). Nature of the test: S. aureus (SAU) GyrB ATPase inhibition, malachite green phosphate detection (E. coli GyrA + S. aureus GyrB). The settings on record: compound concentration of 1.0 μM unless otherwise noted; average value where assay was carried out more than once; read-out: S. aureus (SAU) GyrB ATPase % Inhibition. Type of test: biochemical. In short, it runs like this:
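E. coli GyrA and S. aureus GyrB (1.25 nM each) with 500 μM ATP and 5 μg/ml sheared salmon sperm DNA in 50 mM Hepes pH 7.5, 8.0 mM MgCl2. Released phosphate detected with ammonium molybdate/malachite green at 650 nm; 2% DMSO as 0% and 2 μM novobiocin as 100% inhibition; IC50 from 10 concentrations.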
Take `CCNC(=O)Nc1cc(-c2nc(C(F)(F)F)cs2)c(-c2cc(-c3nnc(C)o3)cnc2OC(C)CN(C)C)cn1` (stereo not shown) [Example 114, 1-(2′-(1-(Dimethylamino)propan-2-yloxy)-5′-(5-methyl-1,3,4-oxadiazol-2-yl)-4-(4-(trifluoromethyl)thiazol-2-yl)-3,3′-bipyridin-6-yl)-3-ethylurea]: the inhibition at 1 µM was 97%.
In the case of `CCNC(=O)Nc1cc(-c2nc(C(F)(F)F)cs2)c(-c2cc(-c3nnc(C)o3)cnc2OCCN(CC)CC)cn1` [Example 115, 1-(2′-(2-(diethylamino)ethoxy)-5′-(5-methyl-1,3,4-oxadiazol-2-yl)-4-(4-(trifluoromethyl)thiazol-2-yl)-3,3′-bipyridin-6-yl)-3-ethylurea], the inhibition at 1 µM is 96%.
As to `CCNC(=O)Nc1cc(-c2nc(C(F)(F)F)cs2)c(-c2cc(-c3nnc(C)o3)cnc2OCCN(C(C)C)C(C)C)cn1` [Example 116, 1-(2′-(2-(diisopropylamino)ethoxy)-5′-(5-methyl-1,3,4-oxadiazol-2-yl)-4-(4(trifluoromethyl)thiazol-2-yl)-3,3′-bipyridin-6-yl)-3-ethylurea], the inhibition at 1 µM was 90%.
Same read-out and setting: for `CCNC(=O)Nc1cc(-c2nc(C(F)(F)F)cs2)c(-c2cc(-c3nnc(C)o3)cnc2OC2CC(C)(C)N(C)C(C)(C)C2)cn1` [Example 117, 1-Ethyl-3-(5′-(5-methyl-1,3,4-oxadiazol-2-yl)-2′-(1,2,2,6,6-pentamethylpiperidin-4-yloxy)-4-(4-(trifluoromethyl)thiazol-2-yl)-3,3′-bipyridin-6-yl)urea] the value was 105%; for `CCNC(=O)Nc1cc(-c2nc(C(F)(F)F)cs2)c(-c2cc(-c3n[nH]c(=O)o3)cnc2OC(C)CN(C)C)cn1` (stereo not shown) [Example 118], 118%; for `CCNC(=O)Nc1cc(-c2nc(C(F)(F)F)cs2)c(-c2cc(-c3n[nH]c(=O)o3)cnc2OCCN(CC)CC)cn1` [Example 119], 96%.
Regarding `CCNC(=O)Nc1cc(-c2nc(C(F)(F)F)cs2)c(-c2cc(-c3n[nH]c(=O)o3)cnc2OCCN(C(C)C)C(C)C)cn1` [Example 120], the inhibition at 1 µM was 118%.
As for `CCNC(=O)Nc1cc(-c2nc(C(F)(F)F)cs2)c(-c2cc(-c3nnc([C@@H](N)C(C)C)o3)cnc2OCCN(CC)CC)cn1` [Example 122, 1-(5′-(5-(1-amino-2-methylpropyl)-1,3,4-oxadiazol-2-yl)-2′-(2-(diethylamino)ethoxy)-4-(4-(trifluoromethyl)thiazol-2-yl)-3,3′-bipyridin-6-yl)-3-ethylurea hydrochloride], the inhibition at 1 µM amounted to 102%.
Same read-out and setting: the value for `CCCNC(=O)Nc1cc(-c2nc(C(F)(F)F)cs2)c(-c2cc(-c3nnc(C)o3)cnc2OCCN(C(C)C)C(C)C)cn1` [Example 123, 1-(2′-(2-(Diisopropylamino)ethoxy)-5′-(5-methyl-1,3,4-oxadiazol-2-yl)-4-(4-(trifluoromethyl)thiazol-2-yl)-3,3′-bipyridin-6-yl)-3-propylurea] was 78%.
On to `CCNC(=O)Nc1cc(-c2nc(C(F)(F)F)cs2)c(-c2cnc(OC)nc2)cn1` [Example 125], for which the inhibition at 1 µM stood at 103%.
Turning to `CCNC(=O)Nc1cc(-c2nc(C(F)(F)F)cs2)c(-c2cnc(C#N)nc2)cn1` [Example 126], the inhibition at 1 µM stood at 102%.
On the same count and under the same terms, the value for `CCNC(=O)Nc1cc(-c2nc(C(F)(F)F)cs2)c(-c2ccc(F)nc2)cn1` [Example 127] was 100%; that for `CCNC(=O)Nc1cc(-c2nc(-c3ccccc3)cs2)c(-c2cncc(S(N)(=O)=O)c2)cn1` [Example 128] was 92%.
Regarding `CCNC(=O)Nc1cc(-c2nc(-c3ccccn3)cs2)c(-c2cncc(S(C)(=O)=O)c2)cn1` [Example 129], the inhibition at 1 µM came out at 102%.
With `CCNC(=O)Nc1cc(-c2nc(-c3ccccc3)cs2)c(-c2ccc[n+]([O-])c2)cn1` [Example 130], the inhibition at 1 µM turned out to be 103%.
Take `CCNC(=O)Nc1cc(-c2nc(C(F)(F)F)cs2)c(-c2cncc(-c3c[nH]c(=O)[nH]c3=O)c2)cn1` [Example 131, 1-(5′-(2,4-Dioxo-1,2,3,4-tetrahydropyrimidin-5-yl)-4-(4-(trifluoromethyl)thiazol-2-yl)-3,3′-bipyridin-6-yl)-3-ethylurea]: the inhibition at 1 µM came to 93%.
On the same count and under the same terms, the value for `CCNC(=O)Nc1cc(-c2nc(C(F)(F)F)cs2)c(-c2cncc(-c3c[nH]nc3C)c2)cn1` [Example 132] was 92%; that for `CCNC(=O)Nc1cc(-c2nc(C(F)(F)F)cs2)c(-c2cncc(-c3c(C)noc3C)c2)cn1` [Example 133] was 104%; that for `CCNC(=O)Nc1cc(-c2nc(C(F)(F)F)cs2)c(-c2cncc(-c3ccn[nH]3)c2)cn1` [Example 134] was 120%.
On the same count and under the same terms, the value for `CCNC(=O)Nc1cc(-c2nc(C(F)(F)F)cs2)c(-c2cncc(-c3n[nH]c(=O)[nH]3)c2)cn1` [Example 135, 1-Ethyl-3-(5′-(5-oxo-4,5-dihydro-1H-1,2,4-triazol-3-yl)-4-(4-(trifluoromethyl)thiazol-2-yl)-3,3′-bipyridin-6-yl)urea] was 101%.
On the same count and under the same terms, for `CCNC(=O)Nc1cc(-c2nc(C(F)(F)F)cs2)c(-c2cncc(-c3nnc(N)o3)c2)cn1` [Example 136, 1-(5′-(5-Amino-1,3,4-oxadiazol-2-yl)-4-(4-(trifluoromethyl)thiazol-2-yl)-3,3′-bipyridin-6-yl)-3-ethylurea] the value was 102%.
For the compound `CCNC(=O)Nc1cc(-c2nc(C(F)(F)F)cs2)c(-c2nc(-c3ncnn3C)c(-c3nnc(C)o3)s2)cn1` [Example 137, 1-Ethyl-3-(5-(5-(5-methyl-1,3,4-oxadiazol-2-yl)-4-(1-methyl-1H-1,2,4-triazol-5-yl)thiazol-2-yl)-4-(4-(trifluoromethyl)thiazol-2-yl)pyridin-2-yl)urea], the inhibition at 1 µM amounted to 101%.
As for `CCNC(=O)Nc1cc(-c2nc(C(F)(F)F)c(C)s2)c(-c2cncc(-c3nnc(C)o3)c2)cn1` [Example 138, 1-Ethyl-3-(5′-(5-methyl-1,3,4-oxadiazol-2-yl)-4-(5-methyl-4-(trifluoromethyl)thiazol-2-yl)-3,3′-bipyridin-6-yl)urea], the inhibition at 1 µM is 104%.
Turning to `CCNC(=O)Nc1cc(-c2nc(C(F)(F)F)cs2)c(-c2cncc(-c3nn(C)c(=O)o3)c2)cn1` [Example 140], the inhibition at 1 µM was found to be 97%.
As for `CCNC(=O)Nc1cc(-c2nc(C(F)(F)F)cs2)c(-c2cc(-c3nnc(C)o3)cnc2OC2CCOCC2)cn1` [Example 141], the inhibition at 1 µM is 97%.
As to `CCNC(=O)Nc1cc(-c2nc(C(F)(F)F)c(C)s2)c(-c2cc(-c3nnc(C)o3)cnc2OC2CCOCC2)cn1` [Example 142], the inhibition at 1 µM was found to be 96%.
On the same count and under the same terms, for `CCNC(=O)Nc1cc(C2=NC(OC)(C(F)(F)F)CS2)c(-c2cncc(-c3n[nH]c(=O)o3)c2)cn1` (stereo not shown) [Example 143] the value was 98%; for `CCNC(=O)Nc1cc(-c2nc(C(F)(F)F)c(C)s2)c(-c2cnc(OC)c(-c3n[nH]c(=O)o3)c2)cn1` [Example 144], 90%; for `CCNC(=O)Nc1cc(-c2nc(C(F)(F)F)c(C)s2)c(-c2cncc(-c3n[nH]c(=O)o3)c2)cn1` [Example 145], 100%.
On the same count and under the same terms, for `CCNC(=O)Nc1cc(-c2cc(C(F)(F)F)nn2C)c(-c2cncc(-c3n[nH]c(=O)o3)c2)cn1` [Example 146] the value was 97%; for `CCNC(=O)Nc1cc(-c2sc(C)nc2C)c(-c2cncc(-c3n[nH]c(=O)o3)c2)cn1` [Example 147], 95%.
Turning to `CCNC(=O)Nc1cc(-n2cc(C(F)(F)F)cn2)c(-c2cncc(-c3n[nH]c(=O)o3)c2)cn1` [Example 148], the inhibition at 1 µM came to 97%.
Same read-out and setting: for `CCNC(=O)Nc1cc(N2CC(C)OC(C)C2)c(-c2cncc(-c3n[nH]c(=O)o3)c2)cn1` (stereo not shown) [Example 149] the value was 94%; for `CCNC(=O)Nc1cc(N2C[C@@H](C)O[C@@H](C)C2)c(-c2cncc(-c3n[nH]c(=O)o3)c2)cn1` [Example 150], 96%; for `CCNC(=O)Nc1cc(N2CCCC(C)(C)C2)c(-c2cncc(-c3n[nH]c(=O)o3)c2)cn1` [Example 151], 97%.
Regarding `CCNC(=O)Nc1cc(-c2nc(C(F)(F)F)cs2)c(-c2cncc(-c3nnc(NCCCN(C)C)o3)c2)cn1` [Example 152, 1-(5′-(5-(3-(Dimethylamino)propylamino)-1,3,4-oxadiazol-2-yl)-4-(4-(trifluoromethyl)thiazol-2-yl)-3,3′-bipyridin-6-yl)-3-ethylurea], the inhibition at 1 µM turned out to be 95%.
Still for that read-out and setting: for `CCNC(=O)Nc1cc(-c2nc(C(F)(F)F)cs2)c(-c2cncc(-c3nnc(NCCOC)o3)c2)cn1` [Example 153] the value was 100%; for `CCNC(=O)Nc1cc(-c2nc(C(F)(F)F)cs2)c(-c2cncc(-c3nnc(N4CCOCC4)o3)c2)cn1` [Example 154], 105%; for `CCNC(=O)Nc1cc(-c2nc(C(F)(F)F)cs2)c(-c2cncc(-c3nnc(N4CCN(C)CC4)o3)c2)cn1` [Example 155], 96%.
For `CCNC(=O)Nc1cc(-c2nc(C(F)(F)F)cs2)c(-c2cncc(-c3nnc(N4CCN(C(C)=O)CC4)o3)c2)cn1` [Example 156], the inhibition at 1 µM worked out at 95%.
On the same count and under the same terms, the value for `CCNC(=O)Nc1cc(-c2nc(C(F)(F)F)cs2)c(-c2cncc(-c3nnc(NCCN(C)C)o3)c2)cn1` [Example 157] was 96%; that for `CCNC(=O)Nc1cc(-c2nc(C(F)(F)F)cs2)c(-c2cncc(-c3nn(C(=O)N(C)C)c(=O)o3)c2)cn1` [Example 158, 5-(6′-(3-Ethylureido)-4′-(4-(trifluoromethyl)thiazol-2-yl)-3,3′-bipyridin-5-yl)-N,N-dimethyl-2-oxo-1,3,4-oxadiazole-3(2H)-carboxamide] was 97%.

Still in this test, the particulars now being: read-out: S. aureus (SAU) GyrB ATPase % Inhibition.
`CCNC(=O)Nc1cc(-c2nc(C(F)(F)F)cs2)c(-c2cc(-c3n[nH]c(=O)o3)c[n+]([O-])c2)cn1` [Example 139]: the inhibition at 1 µM came to 103%.
